The results in this text go back to the NIST ThermoML archive (doi:10.1021/je030101n).

The conditions of series [1]: 101.3 kPa, Liquid; for viscosity: Capillary tube (Ostwald / Ubbelohde) method; for mass density: Pycnometric method.
Series [2] in a line: xn = mol fraction of the nth substance listed. To be noted: 101.3 kPa, Liquid, x1 = 1; for viscosity: Capillary tube (Ostwald / Ubbelohde) method; for mass density: Pycnometric method.

Each structure is given as a SMILES string. Numbers after ± are expanded uncertainties.

As to `Nc1ccccc1` [aniline], the viscosity (in general, the internal friction of a fluid under shear) in series [1] (298.15 K) is listed as 3.69 ± 0.028 mPa·s; in series [1] (303.15 K) it was 3.19 ± 0.024 mPa·s; in series [1] (308.15 K) it was 2.8 ± 0.021 mPa·s; in series [1] (313.15 K), 2.42 ± 0.018 mPa·s. For the same compound, the mass density (usually the mass of a sample divided by its volume) is listed as 1017.2 ± 0.6 kg/m3 in series [1] (298.15 K), 1012.9 ± 0.6 kg/m3 in series [1] (303.15 K), 1008.6 ± 0.6 kg/m3 in series [1] (308.15 K) and 1004.2 ± 0.6 kg/m3 in series [1] (313.15 K).

For `CN(C)C=O` [dimethylformamide] + N#Cc1ccccc1, the viscosity was found to be 0.803 ± 0.006 mPa·s in series [2] (298.15 K), 0.756 ± 0.005 mPa·s in series [2] (303.15 K), 0.71 ± 0.005 mPa·s in series [2] (308.15 K) and 0.673 ± 0.005 mPa·s in series [2] (313.15 K). Besides, the mass density in series [2] (298.15 K) is 944.5 ± 0.3 kg/m3; in series [2] (303.15 K), 939.8 ± 0.3 kg/m3; in series [2] (308.15 K) it was 935.1 ± 0.3 kg/m3; in series [2] (313.15 K), 930.2 ± 0.3 kg/m3.

In the case of `CN(C)C=O` [dimethylformamide] + Nc1ccccc1, the viscosity in series [2] (298.15 K) was found to be 0.803 ± 0.006 mPa·s; in series [2] (303.15 K), 0.756 ± 0.005 mPa·s; in series [2] (308.15 K), 0.71 ± 0.005 mPa·s; in series [2] (313.15 K), 0.673 ± 0.005 mPa·s. The mass density amounted to 944.5 ± 0.3 kg/m3 in series [2] (298.15 K), 939.8 ± 0.3 kg/m3 in series [2] (303.15 K), 935.1 ± 0.3 kg/m3 in series [2] (308.15 K) and 930.2 ± 0.3 kg/m3 in series [2] (313.15 K).

`CN(C)C=O` [dimethylformamide]: the viscosity in series [1] (298.15 K) is reported as 0.803 ± 0.006 mPa·s; in series [1] (303.15 K), 0.756 ± 0.005 mPa·s; in series [1] (308.15 K), 0.71 ± 0.005 mPa·s; in series [1] (313.15 K), 0.673 ± 0.005 mPa·s. The mass density is 944.5 ± 0.3 kg/m3 in series [1] (298.15 K), 939.8 ± 0.3 kg/m3 in series [1] (303.15 K), 935.1 ± 0.3 kg/m3 in series [1] (308.15 K) and 930.2 ± 0.3 kg/m3 in series [1] (313.15 K).

Consider `N#Cc1ccccc1` [benzonitrile], for which the viscosity in series [1] (298.15 K) came to 1.171 ± 0.009 mPa·s; in series [1] (303.15 K), 1.126 ± 0.009 mPa·s; in series [1] (308.15 K) it was 1.068 ± 0.009 mPa·s; in series [1] (313.15 K), 1.001 ± 0.008 mPa·s. Moreover, the mass density stood at 1000.9 ± 0.6 kg/m3 in series [1] (298.15 K), 996.4 ± 0.6 kg/m3 in series [1] (303.15 K), 991.9 ± 0.6 kg/m3 in series [1] (308.15 K) and 987.2 ± 0.6 kg/m3 in series [1] (313.15 K).
